According to patent US7888025B2, “Intestinal folate transporter method” (Albert Einstein College of Medicine of Yeshiva University, priority 2007, dated 2011):
Read-outs that look alike come from different tables or passages of the source. Values belong to the molecule of their own block, whether it stands above or below them.

Key:
G21 (PCFT) [1] = biological target: T1, G21 (PCFT) (Homo sapiens, UniProt Q96NT5); test: Uptake of tritiated folates in G21 cRNA-injected Xenopus oocytes; format: cell-based; details: for G21-mediated transport activity: pH 7.5, 2 μM tritiated substrate, 30 min
T1 construct: expressed in transfected cells; host or cells: Xenopus laevis oocytes injected with capped G21 cRNA (pSPT64, SP6)
T1 sequence (Q96NT5 1-459): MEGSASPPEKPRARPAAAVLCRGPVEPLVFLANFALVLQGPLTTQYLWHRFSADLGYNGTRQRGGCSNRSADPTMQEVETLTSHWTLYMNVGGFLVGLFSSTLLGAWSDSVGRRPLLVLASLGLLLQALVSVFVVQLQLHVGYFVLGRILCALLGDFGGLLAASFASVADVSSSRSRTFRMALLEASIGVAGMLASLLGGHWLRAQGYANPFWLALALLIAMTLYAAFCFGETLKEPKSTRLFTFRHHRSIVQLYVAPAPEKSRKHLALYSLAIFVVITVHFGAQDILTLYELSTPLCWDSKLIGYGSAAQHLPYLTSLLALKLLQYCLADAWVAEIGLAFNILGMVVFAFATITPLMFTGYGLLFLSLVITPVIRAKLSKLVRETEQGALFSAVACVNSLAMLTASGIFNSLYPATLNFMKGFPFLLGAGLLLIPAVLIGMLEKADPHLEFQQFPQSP
Method: Uptake studies in Xenopus oocytes. Defolliculated Xenopus laevis oocytes were prepared as described (Jansen and Akabas, 2006) and injected with 50 nl of water or G21 cRNA (30 ng). Radiotracer uptake was determined 3 or 4 days later. Seven to 10 oocytes were incubated in 500 μl of Modified Barth's Solution (MBS, in mM, 88 NaCl, 2.4 NaHCO3, 2.5 Na pyruvate, 1 KCl, 0.82 MgSO4, 0.41 CaCl2, 0.3 Ca(NO3)2, 15 MES or HEPES) and uptake of tritiated folate substrates assessed at room temperature. Uptake was halted by the addition of ice-cold MBS (pH 7.5). Oocytes were washed 10 times thereafter, and solubilized with 10% SDS for measurement of radioactivity. To collapse the pH gradient across the oocyte membrane, seven to 10 oocytes were incubated in MBS (pH 5.5) containing 0, 10, 20, 40, 60 μM FCCP for 20 min, and uptake of transport substrates assessed at pH 5.5.

G21 (PCFT) [2] = biological target: T1, G21 (PCFT); test: Inhibition of [3H]folic acid uptake into G21 cRNA-injected Xenopus oocytes; format: cell-based; details: 20 μM nonlabeled compound, pH 5.5, 30 min
Method: Uptake studies in Xenopus oocytes. […] Radiotracer uptake was determined 3 or 4 days later. […] Uptake was halted by the addition of ice-cold MBS (pH 7.5). Oocytes were washed 10 times thereafter, and solubilized with 10% SDS for measurement of radioactivity. To collapse the pH gradient across the oocyte membrane, seven to 10 oocytes were incubated in MBS (pH 5.5) containing 0, 10, 20, 40, 60 μM FCCP for 20 min, and uptake of transport substrates assessed at pH 5.5.

G21 (PCFT) [3] = biological target: T1, G21 (PCFT); test: Two-electrode voltage-clamp electrophysiology in G21 cRNA-injected Xenopus oocytes; format: cell-based; details: for Km: read-out: electrophysiologically determined Km
Method: Electrophysiological analyses in Xenopus oocytes. Defolliculated oocytes were injected with 50 nl of water (control) or G21 cRNA (50 ng), and kept at 17° C. in horse serum medium (in mM, 82.5 NaCl, 2.5 KCl, 1 MgCl2, 2.3 CaCl2, 5 HEPES, 5% horse serum, pH 7.5). Electrophysiological recordings were conducted 3-7 days after cRNA injection in buffer (in mM, 90 NaCl, 1 KCl, 1 MgCl2, 1.8 CaCl2, 5 TRIS, 5 MES) as described previously (Jansen and Akabas, 2006). Oocyte holding potential was −80 mV for Km determination. For current-voltage (I-V) relationships, from a −60 mV holding potential step changes in membrane potential were applied for 2 s in 10 mV increments between −100 and 30 mV in the absence and presence of substrate.

PCFT = test: [3H](6S)5-methylTHF uptake in HeLa cells transiently transfected with mutated PCFT cDNA; format: cell-based, human; details: pH 5.5, 37° C., 2 min; for residual transport activity as compared to the wild-type transporter: 0.5 μM [3H](6S)5-methylTHF, mock background subtracted
Text: Analysis of G21 in a family with hereditary folate malabsorption. Members of a family with hereditary folate malabsorption were studied according to a protocol and Informed Consent in the subjects' native language approved by the Albert Einstein College of Medicine IRB (CCI#2006-279). Whole blood was used for isolation of genomic DNA by a Genomic DNA Purification Kit (Gentra Systems, Minneapolis, Minn.) and to generate EBV-transformed human B-lymphoblastoid cell lines in the Einstein Human Genetics Cell Culture Core. Each G21 exon with flanking regions was amplified using Taq DNA polymerase, Q-solution (Qiagen, Valencia, Calif.) and primers listed in Table 4. G21 or RFC cDNA were amplified from lymphoblastoid cells by RT-PCR. PCR products were gel-purified and sequenced in an ABI 3730 DNA Analyzer (Applied Biosystems). The mutated region was verified by sequencing both DNA strands. An expression vector of the mutated G21 in which exon 3 was skipped (GenBank accession number: BC010691) was purchased from Open Biosystems and, along with pcDNA3.1(+)G21 (wild type), was used for an assay of transport function. Western blot analysis on whole cell lysate and cellular localization was performed as described above.
Site-directed mutagenesis. PCFT cDNA was cloned in pCDNA 3.1 (+) and mutations in the coding region were introduced by site-directed mutagenesis using PfuTurbo® DNA polymerase (Stratagene, La Jolla, Calif.) as described previously (Zhao et al., 2000). The entire PCFT coding region in the plasmid was sequenced to verify the presence of the mutation.
Transient transfections and assessment of 5-methylTHF transport. Plasmid concentrations were determined by UV absorption and verified by agarose gel analysis. HeLa cells were seeded and transiently transfected in 20 ml glass scintillation vials (Research Products International Corp., Mt. Prospect, Ill.) and after two days, [^3H]5-methylTHF uptake was assessed (Qiu et al., 2006). EBV-transformed B-lymphoblastoid cells, generated from blood (P6 and P7), were washed twice with, and resuspended in, unbuffered saline (160 mM NaCl, 5 mM KCl, 2 mM MgCl2, 5 mM glucose). Uptake was initiated by injection of the cell suspension into MES-buffered saline (pH 5.5) containing 0.5 μM [^3H]5-methylTHF. Surface binding was assessed by measuring [^3H]5-methylTHF associated with cells at 0° C. and the bound component was subtracted from total uptake.

[4] = changing the pH from 5.5 to 6.5
[5] = increasing the pH from 6.5 to 7.5
[6] = 10 μM FCCP, 20 min pre-incubation, extracellular pH 5.5, 2 μM substrate

G21-mediated transport activity (G21 (PCFT) [1]): residual activity
inhibitory effect on uptake of 2 μM [3H]folic acid (G21 (PCFT) [2]): more potent than the unnatural 6R isomer
Molecule: Nc1nc2c(c(=O)[nH]1)N(C=O)[C@@H](CNc1ccc(C(=O)N[C@@H](CCC(=O)O)C(=O)O)cc1)CN2 [(6S)5-FTHF, (6S)5-formyltetrahydrofolate]

Molecule: CN1c2c(nc(N)[nH]c2=O)NC[C@@H]1CNc1ccc(C(=O)N[C@@H](CCC(=O)O)C(=O)O)cc1 [(6S)5-MTHF, (6S)5-methyltetrahydrofolate]
G21-mediated transport activity (G21 (PCFT) [1]): residual activity
shift of reversal potential (G21 (PCFT) [3]; [4]): −6 mV
shift of reversal potential (G21 (PCFT) [3]; [5]): −30 mV
Km (G21 (PCFT) [3]; pH 5.5, holding potential −80 mV): 0.53 ± 0.04 µM
Km (G21 (PCFT) [3]; pH 6.5, holding potential −80 mV): 0.78 ± 0.14 µM
inhibitory effect on uptake of 2 μM [3H]folic acid (G21 (PCFT) [2]): comparable to those of (6S)5-FTHF

Molecule: O=C1OC(c2ccc(O)c(S(=O)(=O)O)c2)(c2ccc(O)c(S(=O)(=O)O)c2)c2c(Br)c(Br)c(Br)c(Br)c21 [Bromosulphopthalein]
inhibitory effect on uptake of 2 μM [3H]folic acid (G21 (PCFT) [2]): did not inhibit

Molecule: N#CC(C#N)=NNc1ccc(OC(F)(F)F)cc1 [FCCP, carbonyl cyanide 4-(trifluoromethoxy) phenylhydrazone]
effect on [3H]MTX uptake (G21 (PCFT) [1]; [6]): markedly decreased
effect on [3H]folic acid uptake (G21 (PCFT) [1]; [6]): markedly decreased

shift of reversal potential (G21 (PCFT) [3]; [4]): −8 mV
shift of reversal potential (G21 (PCFT) [3]; [5]): −36 mV
lowest concentration at which current was detected (G21 (PCFT) [3]; pH 5.5, Vh −80 mV): 0.1 µM
current amplitude larger than (6S)5-MTHF-induced current (G21 (PCFT) [3]; saturating concentrations, same oocyte, pH 5.5): 86±11%
Molecule: CN(Cc1cnc2nc(N)nc(N)c2n1)c1ccc(C(=O)N[C@@H](CCC(=O)O)C(=O)O)cc1 [MTX, methotrexate]
inhibitory effect on uptake of 2 μM [3H]folic acid (G21 (PCFT) [2]): less effective competitor than folic acid

inhibitory effect on uptake of 2 μM [3H]folic acid (G21 (PCFT) [2]): did not inhibit
Molecule: C[C@H](CCC(=O)O)[C@H]1CC[C@H]2[C@@H]3[C@H](O)C[C@@H]4C[C@H](O)CC[C@]4(C)[C@H]3C[C@H](O)[C@]12C [cholic acid]

inhibitory effect on uptake of 2 μM [3H]folic acid (G21 (PCFT) [2]): did not inhibit
Molecule: C[C@]12CC[C@@H]3c4ccc(OS(=O)(=O)O)cc4CC[C@H]3[C@@H]1CCC2=O [estrone-3-sulfate]

inhibitory effect on uptake of 2 μM [3H]folic acid (G21 (PCFT) [2]): did not inhibit
Molecule: Nc1ccc(C(=O)NCC(=O)O)cc1 [para-aminohippuric acid]

inhibitory effect on uptake of 2 μM [3H]folic acid (G21 (PCFT) [2]): most potent competitor
Molecule: Nc1nc2[nH]cc(CCc3ccc(C(=O)N[C@@H](CCC(=O)O)C(=O)O)cc3)c2c(=O)[nH]1 [pemetrexed]

Molecule: C[C@H](CCC(=O)NCCS(=O)(=O)O)[C@H]1CC[C@H]2[C@@H]3[C@H](O)C[C@@H]4C[C@H](O)CC[C@]4(C)[C@H]3C[C@H](O)[C@]12C [taurocholic acid]
inhibitory effect on uptake of 2 μM [3H]folic acid (G21 (PCFT) [2]): did not inhibit

B1: G147R: human PCFT mutant protein (protein, UniProt Q96NT5 1-459, looked up, variant G147R)
Proton-coupled folate …: MEGSASPPEKPRARPAAAVLCRGPVEPLVFLANFALVLQGPLTTQYLWHRFSADLGYNGTRQRGGCSNRSADPTMQEVETLTSHWTLYMNVGGFLVGLFSSTLLGAWSDSVGRRPLLVLASLGLLLQALVSVFVVQLQLHVGYFVLRRILCALLGDFGGLLAASFASVADVSSSRSRTFRMALLEASIGVAGMLASLLGGHWLRAQGYANPFWLALALLIAMTLYAAFCFGETLKEPKSTRLFTFRHHRSIVQLYVAPAPEKSRKHLALYSLAIFVVITVHFGAQDILTLYELSTPLCWDSKLIGYGSAAQHLPYLTSLLALKLLQYCLADAWVAEIGLAFNILGMVVFAFATITPLMFTGYGLLFLSLVITPVIRAKLSKLVRETEQGALFSAVACVNSLAMLTASGIFNSLYPATLNFMKGFPFLLGAGLLLIPAVLIGMLEKADPHLEFQQFPQSP
residual transport activity as compared to the wild-type transporter (PCFT): 7.0%

B2: R113S: human PCFT mutant protein (protein, UniProt Q96NT5 1-459, looked up, variant R113S)
Proton-coupled folate …: MEGSASPPEKPRARPAAAVLCRGPVEPLVFLANFALVLQGPLTTQYLWHRFSADLGYNGTRQRGGCSNRSADPTMQEVETLTSHWTLYMNVGGFLVGLFSSTLLGAWSDSVGSRPLLVLASLGLLLQALVSVFVVQLQLHVGYFVLGRILCALLGDFGGLLAASFASVADVSSSRSRTFRMALLEASIGVAGMLASLLGGHWLRAQGYANPFWLALALLIAMTLYAAFCFGETLKEPKSTRLFTFRHHRSIVQLYVAPAPEKSRKHLALYSLAIFVVITVHFGAQDILTLYELSTPLCWDSKLIGYGSAAQHLPYLTSLLALKLLQYCLADAWVAEIGLAFNILGMVVFAFATITPLMFTGYGLLFLSLVITPVIRAKLSKLVRETEQGALFSAVACVNSLAMLTASGIFNSLYPATLNFMKGFPFLLGAGLLLIPAVLIGMLEKADPHLEFQQFPQSP
[3H](6S)5-methylTHF uptake (transport function) (PCFT; 0.5 μM, transiently transfected HeLa cells): essentially no uptake

B3: P425R: human PCFT mutant protein (protein, UniProt Q96NT5 1-459, looked up, variant P425R)
Proton-coupled folate …: MEGSASPPEKPRARPAAAVLCRGPVEPLVFLANFALVLQGPLTTQYLWHRFSADLGYNGTRQRGGCSNRSADPTMQEVETLTSHWTLYMNVGGFLVGLFSSTLLGAWSDSVGRRPLLVLASLGLLLQALVSVFVVQLQLHVGYFVLGRILCALLGDFGGLLAASFASVADVSSSRSRTFRMALLEASIGVAGMLASLLGGHWLRAQGYANPFWLALALLIAMTLYAAFCFGETLKEPKSTRLFTFRHHRSIVQLYVAPAPEKSRKHLALYSLAIFVVITVHFGAQDILTLYELSTPLCWDSKLIGYGSAAQHLPYLTSLLALKLLQYCLADAWVAEIGLAFNILGMVVFAFATITPLMFTGYGLLFLSLVITPVIRAKLSKLVRETEQGALFSAVACVNSLAMLTASGIFNSLYPATLNFMKGFRFLLGAGLLLIPAVLIGMLEKADPHLEFQQFPQSP
residual transport activity as compared to the wild-type transporter (PCFT): 3.4%
